Laboratory results: BindingDB's records for doi:10.1016/j.bmcl.2009.02.053 (University of Warsaw, 2009)

Experiments:
[1] = biological target: T1, Eukaryotic translation initiation factor 4E (Oryctolagus cuniculus, UniProt P29338); assay: Inhibition of eukaryotic initiation factor 4E in micrococcal nuclease-pretreated rabbit reticulocyte lysate assessed as inhibition of m7,3'-O-GpppG-capped 5'UTRbetaglob-LUC mRNA translation by luciferase-based luminometry
[2] = biological target: T1, Eukaryotic translation initiation factor 4E; assay: Inhibition of eukaryotic initiation factor 4E in micrococcal nuclease-pretreated rabbit reticulocyte lysate assessed as inhibition of m7,3'-O-GpppG-capped 5'UTRbetaglob-LUC mRNA translation treated 60 mins before mRNA addition by luciferase-based luminometry

T1 sequence (P29338 whole entry): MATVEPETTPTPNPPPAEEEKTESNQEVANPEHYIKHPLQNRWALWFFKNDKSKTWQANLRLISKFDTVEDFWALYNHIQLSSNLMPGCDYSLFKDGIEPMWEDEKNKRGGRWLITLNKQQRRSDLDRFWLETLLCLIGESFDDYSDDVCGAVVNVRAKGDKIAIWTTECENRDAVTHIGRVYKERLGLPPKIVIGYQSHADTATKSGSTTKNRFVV

IC50 [1]: 1440 nM
IC50 [2]: 1300 nM
SMILES: C[n+]1cn(C2OC(COP(=O)(S)OP(=O)(O)OP(=O)(O)O)C(O)C2O)c2nc(N)[n-]c(=O)c21 [2-amino-9-[(2R,3R,4S,5R)-3,4-dihydroxy-5-{[({[(phosphonatooxy)phosphinato]oxy}(sulfanidyl)phosphoryl)oxy]methyl}oxolan-2-yl]-7-methyl-6-oxido-9H-purin-7-ium]
